Assays:
LSD1/CoREST complex [1] = molecular target: T1, LSD1/CoREST complex (Homo sapiens, UniProt O60341); assay: Non-competitive inhibition of LSD1/CoREST (unknown origin) using H3K4me2 as substrate incubated for 0.5 hrs by ELISA; format: protein-complex assay
[2] = Cmax in Sprague-Dawley rat at 40 mg/kg, po measured for 24 hrs by LC-MS/MS analysis; format: ADME, organism-based; conditions: in vivo
[3] = molecular target: Epidermal growth factor receptor (Homo sapiens, UniProt P00533); assay: Inhibition of wild-type EGFR (unknown origin) using Glu/Tyr as substrate incubated for 1 hr by ELISA
[4] = Oral bioavailability in Sprague-Dawley rat at 40 mg/kg measured for 24 hrs by LC-MS/MS analysis; format: ADME, organism-based; conditions: in vivo
[5] = MRT (infinity) in Sprague-Dawley rat at 10 mg/kg, iv measured for 24 hrs by LC-MS/MS analysis; format: ADME, organism-based; conditions: in vivo
[6] = Toxicity in athymic nude BALB/c mouse xenografted with human NCI-H1975 cells assessed as drug tolerance at 3 mg/kg, po daily for 27 days; format: organism-based; conditions: in vivo, 648 h, time 27 day
A-431 = assay: Antiproliferative activity against human A-431 cells expressing wild-type EGFR measured after 72 hrs by SRB assay; conditions: A-431, 72 h
LSD1/CoREST complex [7] = molecular target: T1, LSD1/CoREST complex; assay: Inhibition of full-length recombinant LSD1 (123 to 852 residues)(unknown origin)/CoREST (305 to 482 residues)(unknown origin) extracted from Escherichia coli using H3K4me2 as substrate preincubated for 5 mins followed by substrate addition measured after 30 mins by HRP/Amplex Red based fluorescence assay; format: protein-complex assay
[8] = MRTlast in Sprague-Dawley rat at 10 mg/kg, iv measured for 24 hrs by LC-MS/MS analysis; format: ADME, organism-based; conditions: in vivo
cells = conditions: Homo sapiens, NCI-H1975, 72 h
[9] = Tmax in Sprague-Dawley rat at 40 mg/kg, po measured for 24 hrs by LC-MS/MS analysis; format: ADME, organism-based; conditions: in vivo
[10] = AUClast in Sprague-Dawley rat at 10 mg/kg, iv measured for 24 hrs by LC-MS/MS analysis; format: ADME, organism-based; conditions: in vivo
[11] = Antiproliferative activity against human PC9-OR cells measured after 72 hrs by SRB assay
[12] = Volume of distribution at steady state in Sprague-Dawley rat at 10 mg/kg, iv measured for 24 hrs by LC-MS/MS analysis; format: ADME, organism-based; conditions: in vivo, read-out: Vdss
NCI-H1975 = assay: Antitumor activity against human NCI-H1975 cells xenografted in athymic nude BALB/c mouse at 3 mg/kg, po daily for 27 days relative to control; format: functional; conditions: NCI-H1975, 648 h, time 27 day, read-out: TGI
[13] = AUC (infinity) in Sprague-Dawley rat at 10 mg/kg, iv measured for 24 hrs by LC-MS/MS analysis; format: ADME, organism-based; conditions: in vivo
[14] = molecular target: Epidermal growth factor receptor (Homo sapiens, UniProt P00533, L858R/T790M); assay: Inhibition of EGFR L858R/T790M mutant (unknown origin) using Glu/Tyr as substrate incubated for 1 hr by ELISA
PC-9 = assay: Antiproliferative activity against human PC-9 cells expressing EGFR del19 mutant measured after 72 hrs by SRB assay; conditions: PC-9, 72 h
[15] = Clearance in Sprague-Dawley rat at 10 mg/kg, iv measured for 24 hrs by LC-MS/MS analysis; format: ADME, organism-based; conditions: in vivo
[16] = Antiproliferative activity against human PC9 Gefitinib-resistant (GR) cells measured after 72 hrs by SRB assay; conditions: PC9 Gefitinib-resistant (GR) cell
[17] = Half life in Sprague-Dawley rat at 10 mg/kg, iv measured for 24 hrs by LC-MS/MS analysis; format: ADME, organism-based; conditions: in vivo
[18] = AUClast in Sprague-Dawley rat at 40 mg/kg, po measured for 24 hrs by LC-MS/MS analysis; format: ADME, organism-based; conditions: in vivo
[19] = Toxicity in athymic nude BALB/c mouse xenografted with human NCI-H1975 cells assessed as body weight loss at 3 mg/kg, po daily for 27 days; format: organism-based; conditions: in vivo, 648 h, time 27 day
[20] = MRTlast in Sprague-Dawley rat at 40 mg/kg, po measured for 24 hrs by LC-MS/MS analysis; format: ADME, organism-based; conditions: in vivo
[21] = system: Osimertinib-resistant NCI-H1975 cell; assay: Antiproliferative activity against human Osimertinib-resistant NCI-H1975 cells measured after 72 hrs by SRB assay
[22] = MRT (infinity) in Sprague-Dawley rat at 40 mg/kg, po measured for 24 hrs by LC-MS/MS analysis; format: ADME, organism-based; conditions: in vivo
[23] = Half life in Sprague-Dawley rat at 40 mg/kg, po measured for 24 hrs by LC-MS/MS analysis; format: ADME, organism-based; conditions: in vivo
[24] = AUC (infinity) in Sprague-Dawley rat at 40 mg/kg, po measured for 24 hrs by LC-MS/MS analysis; format: ADME, organism-based; conditions: in vivo

Epidermal growth factor receptor (Homo sapiens, UniProt P00533), sequence (P00533 whole entry): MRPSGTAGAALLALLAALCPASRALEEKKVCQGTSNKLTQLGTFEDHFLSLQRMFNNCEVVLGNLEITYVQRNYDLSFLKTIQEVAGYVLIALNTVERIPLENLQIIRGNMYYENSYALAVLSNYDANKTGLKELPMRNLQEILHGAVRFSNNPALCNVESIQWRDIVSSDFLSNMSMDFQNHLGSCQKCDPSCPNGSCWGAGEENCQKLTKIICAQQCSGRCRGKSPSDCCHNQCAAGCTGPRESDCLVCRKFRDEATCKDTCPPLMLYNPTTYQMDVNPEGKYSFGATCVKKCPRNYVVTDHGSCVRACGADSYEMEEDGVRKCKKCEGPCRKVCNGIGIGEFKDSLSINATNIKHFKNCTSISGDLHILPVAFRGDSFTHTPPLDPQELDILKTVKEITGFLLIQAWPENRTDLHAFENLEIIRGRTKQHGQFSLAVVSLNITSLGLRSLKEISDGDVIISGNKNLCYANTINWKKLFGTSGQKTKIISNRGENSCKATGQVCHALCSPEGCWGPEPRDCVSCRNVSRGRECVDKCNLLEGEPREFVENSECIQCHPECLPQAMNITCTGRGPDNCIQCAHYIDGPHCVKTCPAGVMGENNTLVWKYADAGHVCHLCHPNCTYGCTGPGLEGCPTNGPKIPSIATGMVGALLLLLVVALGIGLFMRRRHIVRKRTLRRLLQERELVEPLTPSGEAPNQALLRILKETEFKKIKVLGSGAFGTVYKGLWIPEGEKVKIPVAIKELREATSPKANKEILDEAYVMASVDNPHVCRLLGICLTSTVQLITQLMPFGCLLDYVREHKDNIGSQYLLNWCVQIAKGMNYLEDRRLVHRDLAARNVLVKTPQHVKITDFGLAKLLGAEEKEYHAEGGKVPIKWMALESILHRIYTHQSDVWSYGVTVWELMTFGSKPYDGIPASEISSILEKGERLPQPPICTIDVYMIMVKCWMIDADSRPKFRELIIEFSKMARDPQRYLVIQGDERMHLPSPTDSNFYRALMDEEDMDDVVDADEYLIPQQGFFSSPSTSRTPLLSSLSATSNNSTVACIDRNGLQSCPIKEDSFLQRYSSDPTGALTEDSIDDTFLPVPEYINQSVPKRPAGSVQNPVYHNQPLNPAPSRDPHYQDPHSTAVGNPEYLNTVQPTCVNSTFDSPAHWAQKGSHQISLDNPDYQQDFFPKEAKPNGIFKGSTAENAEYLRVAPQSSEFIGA
Epidermal growth factor receptor (Homo sapiens, UniProt P00533, L858R/T790M), sequence (P00533 25-1210 T790M/L858R limits assumed): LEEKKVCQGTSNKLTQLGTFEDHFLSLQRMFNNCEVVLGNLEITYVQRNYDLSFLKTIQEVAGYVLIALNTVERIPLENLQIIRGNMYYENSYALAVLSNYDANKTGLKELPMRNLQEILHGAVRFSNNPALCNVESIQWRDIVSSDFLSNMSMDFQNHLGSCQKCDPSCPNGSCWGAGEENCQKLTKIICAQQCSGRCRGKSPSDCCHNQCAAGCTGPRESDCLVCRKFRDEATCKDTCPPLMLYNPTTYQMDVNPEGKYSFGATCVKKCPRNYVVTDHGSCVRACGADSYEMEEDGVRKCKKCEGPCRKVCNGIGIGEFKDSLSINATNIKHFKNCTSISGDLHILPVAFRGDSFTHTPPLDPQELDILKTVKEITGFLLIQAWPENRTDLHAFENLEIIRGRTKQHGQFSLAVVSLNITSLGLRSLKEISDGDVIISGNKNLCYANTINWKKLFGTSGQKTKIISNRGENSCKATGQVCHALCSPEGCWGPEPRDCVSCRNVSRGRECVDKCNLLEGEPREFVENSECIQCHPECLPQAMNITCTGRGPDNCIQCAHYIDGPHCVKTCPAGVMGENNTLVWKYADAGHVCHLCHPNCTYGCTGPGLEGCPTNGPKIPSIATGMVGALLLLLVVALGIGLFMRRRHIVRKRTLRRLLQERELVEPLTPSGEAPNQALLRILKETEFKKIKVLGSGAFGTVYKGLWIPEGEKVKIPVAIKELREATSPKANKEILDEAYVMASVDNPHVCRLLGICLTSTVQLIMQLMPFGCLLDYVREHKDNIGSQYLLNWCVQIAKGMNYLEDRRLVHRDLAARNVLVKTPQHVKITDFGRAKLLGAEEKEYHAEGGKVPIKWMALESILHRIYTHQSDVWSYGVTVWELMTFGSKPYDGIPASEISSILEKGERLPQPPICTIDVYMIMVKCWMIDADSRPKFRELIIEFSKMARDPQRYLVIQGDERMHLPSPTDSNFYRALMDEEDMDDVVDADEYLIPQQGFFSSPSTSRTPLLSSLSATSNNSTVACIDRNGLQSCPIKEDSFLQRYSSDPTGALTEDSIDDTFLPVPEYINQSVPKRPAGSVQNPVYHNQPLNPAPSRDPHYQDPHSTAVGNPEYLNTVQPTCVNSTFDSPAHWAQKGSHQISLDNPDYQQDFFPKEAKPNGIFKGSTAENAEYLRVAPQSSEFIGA

Structure (SMILES): [2H]C([2H])([2H])n1cc(-c2ccnc(Nc3cc(NC(=O)C=C)c(N4CCC(C)(N)CC4)cc3OC)n2)c2ccccc21
- Ki (LSD1/CoREST complex [1]): 2.34 µM
- Cmax [2]: 568 ng/mL
- IC50 [3]: 0.788 µM
- bioavailability [4]: 59.6%
- MRT inf [5]: 16 h
- Activity [6]: Non-toxic
- IC50 (A-431): 0.29 µM
- IC50 (LSD1/CoREST complex [7]): 8 µM
- MRT last at 24 h [8]: 7.17 h
- IC50 (cells): 0.07 µM
- Tmax [9]: 6 h
- AUC(0-t) at 24 h [10]: 3740 ng·h/mL
- IC50 [11]: 0.85 µM
- Vd [12]: 32.3 L/kg
- inhibition in vivo at 3 mg/kg (NCI-H1975): 51.3%
- AUC(0-inf) [13]: 4940 ng·h/mL
- IC50 [14]: 0.0068 µM
- IC50 (PC-9): 0.93 µM
- clearance [15]: 33.8 mL/min/kg
- IC50 [16]: 1.37 µM
- half-life [17]: 13 h
- AUC(0-t) at 24 h [18]: 8840 ng·h/mL
- Activity [19]: Non-toxic
- MRT last at 24 h [20]: 9.37 h
- IC50 [21]: 1.6 µM

Structure (SMILES): [2H]C([2H])([2H])n1cc(-c2ccnc(Nc3cc(NC(=O)C=C)c(N4CC[C@@H](N(C)C)C4)cc3OC)n2)c2ccccc21
- Ki (LSD1/CoREST complex [1]): 0.257 µM
- Cmax [2]: 724 ng/mL
- MRT inf [22]: 8.14 h
- bioavailability [4]: 65.1%
- MRT inf [5]: 6.51 h
- Activity [6]: Non-toxic
- IC50 (A-431): 2.46 µM
- half-life [23]: 6.23 h
- IC50 (LSD1/CoREST complex [7]): 0.6 µM
- MRT last at 24 h [8]: 5.08 h
- IC50 (cells): 1.75 µM
- Tmax [9]: 5 h
- AUC(0-t) at 24 h [10]: 4000 ng·h/mL
- IC50 [11]: 6.73 µM
- Vd [12]: 15.5 L/kg
- inhibition in vivo at 3 mg/kg (NCI-H1975): 60.4%
- AUC(0-inf) [13]: 4220 ng·h/mL
- IC50 (PC-9): 6.81 µM
- clearance [15]: 39.8 mL/min/kg
- IC50 [16]: 5.35 µM
- half-life [17]: 6.07 h
- AUC(0-t) at 24 h [18]: 10400 ng·h/mL
- Activity [19]: Non-toxic
- AUC(0-inf) [24]: 9720 ng·h/mL
- MRT last at 24 h [20]: 6.76 h
- IC50 [21]: 8.93 µM

— ChEMBL document CHEMBL6103626, “Structure-Based Design of New LSD1/EGFRL858R/T790M Dual Inhibitors for Treating EGFR Mutant NSCLC Cancers” (J Med Chem, 2025)
